This is an account of results in patent US7910612B2, “4-oxy-N-[1,3,4]-thiadiazol-2-yl-benzene sulfonamides, pharmaceutical compositions and methods for their therapeutic use” (Sanofi-Aventis, priority 2005, dated 2011).

The test system of test [1] is obese, insulin resistant rhesus monkeys. Conditions: cited from earlier work.
Test [2] deals with healthy volunteers. Conditions: two weeks clinical trials in healthy volunteers; cited from earlier work.
Test [3] has as its system cynomolgus monkeys. Conditions: cited from earlier work.
Test [4] concerns rhesus monkeys. Conditions: cited from earlier work.
Test [5] concerns diabetic animal model. Conditions: cited from earlier work.
For test [6], the target named is T1, human PPARdelta (Homo sapiens, UniProt Q03181).
T1 construct: amino acids S139-Y441; expressed in transfected cells; host or cells: HEK (human embryo kidney) cells, stably transfected, pcDNA3 vector
T1 sequence (Q03181 139-441): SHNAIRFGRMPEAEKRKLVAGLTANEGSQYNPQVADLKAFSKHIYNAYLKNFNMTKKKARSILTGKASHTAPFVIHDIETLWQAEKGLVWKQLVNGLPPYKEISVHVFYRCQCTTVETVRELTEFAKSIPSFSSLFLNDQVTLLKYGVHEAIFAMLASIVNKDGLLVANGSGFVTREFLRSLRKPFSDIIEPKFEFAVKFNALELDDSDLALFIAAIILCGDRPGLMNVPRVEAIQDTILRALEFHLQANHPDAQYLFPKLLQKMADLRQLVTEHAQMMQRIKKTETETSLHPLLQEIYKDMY
The experiment in a line: cellular PPARdelta assay (stably transfected HEK luciferase reporter cell line). Type of test: cell-based. The method, then: The potency of substances which bind to human PPARdelta and activate it in an agonistic manner is analyzed using a stably transfected HEK cell line (HEK=human embryo kidney) which is referred to here as PPARdelta reporter cell line. In analogy to the assay described for PPARalpha, the PPARdelta reporter cell line also contains two genetic elements, a luciferase reporter element (pdeltaM-GAL4-Luc-Zeo) and a PPARdelta fusion protein (GR-GAL4-humanPPARdelta-LBD) which mediates expression of the luciferase reporter element depending on a PPARdelta ligand. The stably and constitutively expressed fusion protein GR-GAL4-humanPPARdelta-LBD binds in the cell nucleus of the PPARdelta reporter cell line via the GAL4 protein portion to the GAL4 DNA binding motifs 5′-upstream of the luciferase reporter element which is stably integrated in the genome of the cell line. There is only little expression of the luciferase reporter gene in the absence of a PPARdelta ligand if fatty acid-depleted fetal calf serum (cs-FCS) is used in the assay. PPARdelta ligands bind and activate the PPARdelta fusion protein and thereby stimulate expression of the luciferase reporter gene. The luciferase which is formed can be detected by means of chemiluminescence via an appropriate substrate.
The production of the stable PPARdelta reporter cell line is based on a stable HEK-cell clone which was stably transfected with a luciferase reporter element. This step was already described above in the section “construction of the PPARalpha reporter cell line”. In a second step, the PPARdelta fusion protein (GR-GAL4-humanPPARdelta-LBD was stably introduced into this cell clone. For this purpose, the cDNA coding for the N-terminal 76 amino acids of the glucocorticoid receptor (Accession #P04150) was linked to the cDNA section coding for amino acids 1-147 of the yeast transcription factor GAL4 (Accession #P04386). The cDNA of the ligand-binding domain of the human PPARdelta receptor (amino acids S139-Y441; Accession #L07592) was cloned in at the 3′-end of this GR-GAL4 construct. The fusion construct prepared in this way (GR-GAL4-humanPPARdelta-LBD) was recloned into the plasmid pcDNA3 (Invitrogen) in order to enable constitutive expression by the cytomegalovirus promoter. This plasmid was linearized with a restriction endonuclease and stably transfected into the previously described cell clone containing the luciferase reporter element. The resulting PPARdelta reporter cell line which contains a luciferase reporter element and constitutively expresses the PPARdelta fusion protein (GR-GAL4-human PPARdelta-LBD) was isolated by selection with zeocin (0.5 mg/ml) and G418 (0.5 mg/ml).
The activity of PPARdelta agonists is determined in a 3-day assay in exact analogy to the procedure already described for the PPARalpha reporter cell line except that the PPARdelta reporter cell line and a specific PPARdelta agonist was used as a standard to control test efficacy. […] Compounds of the invention of the formula I activate the PPARdelta receptor.
On the technique in general: In a reporter assay the amount or activity of a reporter protein is the signal.

Regarding `Cc1cc(SCc2sc(-c3ccc(C(F)(F)F)cc3)nc2C)ccc1OCC(=O)O` [GW501516], in test [1], the HDL-cholesterol result is “raises HDL-cholesterol” and the “plasma LDL-cholesterol” value is listed as “decreases plasma LDL-cholesterol”. Moreover, in test [1] (plasma), the insulin levels result is recorded as “decreases” and the triglycerides result is listed as “decreases”.
As to `CCCc1c(OCCCSc2nnc(SCC(=O)O)s2)ccc(C(C)=O)c1O` [YM-16638], the plasma lipids entry is recorded as “acts in a similar manner” in test [2], “significantly lowers plasma lipids” in test [3] and “significantly lowers plasma lipids” in test [4].
Take `CCCc1c(OCCCOc2ccc(OCC(=O)O)cc2)ccc(C(C)=O)c1O` [Example L-165041]: in test [5], the plasma cholesterol result was “raises plasma cholesterol”.
In the case of `COc1ccc2oc(COc3ccc(S(=O)(=O)Nc4nnc(C(C)C)s4)cc3)cc2c1` [Example 12, N-(5-Isopropyl-[1,3,4]thiadiazol-2-yl)-4-(5-methoxy-benzofuran-2-ylmethoxy)-benzenesulfonamide], in test [6], the response was half-maximal at 480 nM (EC50).
